The test system of one data set is A549.EpoB40. The class given is cell-based. Particulars: vs A549; below 1 = sensitive. The text has this: (§1) Cells lines with previously known mechanisms of resistance. […] Res. 8: 207-218,1996); KB-3-1 (parental derived from an epidermoid carcinoma), KB-8.5, KB-V1 (Akiyama S-I, Fojo A, Hanover J A, Pastan I, Gottesman M M. Isolation and genetic characterization of human KB cell lines resistant to multiple drugs. Somatic Cell Mol. Gen., 11: 117-126,1985; Shen D-W, Cardarelli C, Hwang J, Cornwell M, Richert N, Ishii S, Pastan I, Gottesman MM. […] J. Biol. Chem., 261: 7762-7770, 1986); and HL-60 (parental derived from human leukemia) and HL60/AR (McGrath T., Center M. S. Adriamycin resistance in HL60 cells in the absence of detectable P-glycoprotein. Biochem. Res. Commun., 145:1171-1176,1987); A549 and A549.EpoB40 (He L., Yang C.-P.H., Horwitz S. B. Mutations in p-tubulin map to domains involved in regulation of microtubule stability in epothilone-resistant cell lines. Molecular Cancer Therapeutics. 1: 3-10, 2001). HCT-15 human colon carcinoma and DLD-1 human colon carcinoma are obtained from American Tissue Culture Collection. The MX-1W carcinoma is a Wyeth variant orginally obtained as MX-1 breast carcinoma from the National Cancer Institute. Cell lines selected for resistance to Representative Example 129. KB-3-1 cells are selected for resistance to Example 129 by chronically exposing cells to increasing concentrations of Example 129.
2.2. Cell Survival Assay: Standard Pharmacological Test Procedure. The concentration of candidate inhibitor required to inhibit 50% of cell growth (IC50) is done according to previously reported methods. […] Compounds are serially diluted into media as 2× stocks and 100 μl added to cells in duplicate. Compounds are incubated with cells for 3 days. At the end of the incubation period the sulforhodamine B (SRB) assay, which measures protein content as an assessment of cell survival, is performed as described previously (Skehan P, Storeng R, Scudiero D, Monks A, McMahon J, Vistica D, Warren J T, Bokesch H, Kenney S, Boyd MR. New calorimetric cytotoxicity assay for anticancer-drug screening. J Natl Cancer Inst 1990 Jul 4;82(13):1107-12) with some modification as follows. For KB-3-1 cells with 20% FCS, media is gently decanted and replaced with 200 μl of serum-free media mixed with cold 50% TCA for a final concentration of 10% TCA. The plates are incubated for 1 hr at 4° C., followed by washing 5 times in cold distilled water, then air dried overnight. The fixed cells are stained for 10 min with 80 μl of 0.04% SRB solution prepared in 1% glacial acetic acid. Stain is discarded and plates washed 5 times in 1% glacial acetic acid, then air-dried until completely dry. […] Absorbance is read on a Victor V multi-label plate reader (Perkin Elmer, Gaithersburg, Md.).

The subject of data set [1] is KB-8-5 (MDR1+). Nature of the data set: Cell survival assay (SRB), KB-8-5 (MDR1+). Particulars: for IC50: Homo sapiens; for RR, relative resistance: IC50 KB-8-5 / IC50 KB-3-1.
A further data set concerns S1. Nature of the data set: Cell survival assay (SRB), S1. The class given is cell-based. Particulars: Homo sapiens; S1 parental; Table 5; read-out: S1 IC50, nM (N).
Source text: as §1
(§2) 2.2. Cell Survival Assay: Standard Pharmacological Test Procedure. The concentration of candidate inhibitor required to inhibit 50% of cell growth (IC50) is done according to previously reported methods. […] Compounds are serially diluted into media as 2× stocks and 100 μl added to cells in duplicate. Compounds are incubated with cells for 3 days. At the end of the incubation period the sulforhodamine B (SRB) assay, which measures protein content as an assessment of cell survival, is performed as described previously (Skehan P, Storeng R, Scudiero D, Monks A, McMahon J, Vistica D, Warren J T, Bokesch H, Kenney S, Boyd MR. New calorimetric cytotoxicity assay for anticancer-drug screening. J Natl Cancer Inst 1990 Jul 4;82(13):1107-12) with some modification as follows. For KB-3-1 cells with 20% FCS, media is gently decanted and replaced with 200 μl of serum-free media mixed with cold 50% TCA for a final concentration of 10% TCA. The plates are incubated for 1 hr at 4° C., followed by washing 5 times in cold distilled water, then air dried overnight. The fixed cells are stained for 10 min with 80 μl of 0.04% SRB solution prepared in 1% glacial acetic acid. Stain is discarded and plates washed 5 times in 1% glacial acetic acid, then air-dried until completely dry. Stained cell product is dissolved in 150 μl of 10 mM Trizma Base and placed on a shaker for 20 minutes until fully dissolved. Absorbance is read on a Victor V multi-label plate reader (Perkin Elmer, Gaithersburg, Md.).

For a further data set, the system named is HL60. Nature of the data set: Cell survival assay (MTS), HL60. The class given is cell-based. Particulars: Homo sapiens, HL-60; HL60 parental; Table 5; read-out: HL60 IC50, nM (N).
Another data set deals with MX-1W tumor. Nature of the data set: Growth of tumors in nude mice, MX-1W xenograft. Particulars: staged MX-1W xenograft; at MTD; days 11-15. Format: in vivo. The text has this:
2.4. Growth of Tumors in Nude Mice.

The test system of another data set is S1-M1-3.2 (MXR). Nature of the data set: Cell survival assay, S1-M1-3.2 (MXR). To be noted: for IC50: Homo sapiens, S1-M1-3.2, MXR over-expression, Table 5, read-out: S1-M1-3.2 (MXR) IC50, nM (N); for RR, relative resistance: IC50 S1-M1-3.2 / IC50 S1. The class given is cell-based, human.
Source text: as §1, §2
(§3) J. Cell Science,113: 2011-2021, 2000). It was unknown whether the hemiasterlin family of peptides interact with these drug pumps.

Another data set has as its system KB-3-1. Put plainly: Cell survival assay (SRB), KB-3-1. Format: cell-based, human. An outline of the steps:
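IC50 for 50% growth inhibition after 3-day compound exposure, tested in duplicate. SRB protein staining of TCA-fixed cells (10% TCA, 1 hr, 4 °C), solubilised in Tris base and read by absorbance, was used as the survival read-out, with KB-3-1 grown in 20% FCS.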

Another data set concerns tumor cell lines. Nature of the data set: cells. Format: cell-based. Particulars: HL60/AR (MRP1) or S1-M1-3.2 (MXR).
Source text: as §1, §2

In another data set the test system is KB-PTX-15+099. Put plainly: Cell survival assay, KB-PTX-15+099 (paclitaxel-resistant, non-MDR). The class given is cell-based, human.
Data set [2] relates to KB-V1 (MDR1++). Nature of the data set: Cell survival assay (SRB), KB-V1 (MDR1++). Particulars: for IC50: Homo sapiens; for RR, relative resistance: IC50 KB-V1 / IC50 KB-3-1.
For a further data set, the system named is HL60/AR (MRP1). Nature of the data set: Cell survival assay, HL60/AR (MRP1). Particulars: for IC50: Homo sapiens, HL-60/AR, read-out: HL60/AR (MRP1) IC50, nM (N); for RR, relative resistance: IC50 HL60/AR / IC50 HL60.
Source text: as §1, §2, §3

Data set [3] concerns Human Melanoma Carcinoma Lox. Particulars: staged LOX xenograft; at MTD ('<': MTD not achieved); days 11-15.
A further data set concerns KB-HTI-4.0. Put plainly: Cell survival assay, KB-3-1 line made resistant to Example 129 (KB-HTI-4.0). Format: cell-based, human. To be noted: for IC50: Homo sapiens, KB-3-1 line made resistant to Example 129, Table 8, read-out: KB-HTI-4.0 IC50.
Source text: as §1, §2
Cells are selected for resistance to Example 129 to understand the frequency and mechanistic basis of resistance.

The test system of data set [4] is KB-V1 (MDR1++).
The subject of data set [5] is KB-8-5 (MDR1+).

Read-outs that look alike come from different tables or passages of the source. Some results are limits rather than exact numbers.

Take `CC[C@]1(O)C[C@@H]2CN(CCc3c([nH]c4ccccc34)[C@@](C(=O)OC)(c3cc4c(cc3OC)N(C)[C@H]3[C@@](O)(C(=O)OC)[C@H](OC(C)=O)[C@]5(CC)C=CCN6CC[C@]43[C@@H]65)C2)C1` [vinblastine]: in the data set with A549.EpoB40, the “resistance of A549.EpoB40 cells” value is on record as 0.2 fold. The IC50 in the data set with KB-8-5 (MDR1+) [1] (MDR1, read-out: KB-8-5 (MDR1+) IC50, nM (N), KB-8-5, moderate MDR1 expression, Table 3) stood at 29.2 ± 22 nM; in the data set with S1 it was 6.5 nM; in the data set on HL60 it was 0.5 nM; in the data set with S1-M1-3.2 (MXR) it was 12.7 nM; in the data set on KB-3-1 (Homo sapiens, KB 3-1, 72 h, amount of drug needed to kill 50% of cells after three days continuous exposure, Table 11, read-out: IC50 in parental cell line KB-3-1), 0.8 nM; in the data set on KB-3-1 (Homo sapiens, KB 3-1, KB-3-1, Table 6, read-out: KB-3-1 IC50) it was 0.703 ± 0.097 nM. For the same compound, the IC50 in the data set with KB-3-1 (Homo sapiens, KB 3-1, KB-3-1 parental, Table 3, read-out: KB-3-1 IC50, nM (N)) turned out to be 0.79 ± 0.5 nM; in the data set on KB-3-1 (Homo sapiens, KB 3-1, KB-3-1 parental, Table 8, read-out: KB-3-1 IC50), 0.73 ± 0.03 nM; with KB-PTX-15+099 (Homo sapiens, KB-PTX-15+099, Table 6, read-out: KB-PTX-15+099 IC50), 0.000192 ± 2.2e-05 µM; in the data set on KB-V1 (MDR1++) [2] (read-out: KB-V1 (MDR1++) IC50, nM (N), KB-V1, high MDR1 expression, Table 3), 1460 ± 1020 nM; in the data set on HL60/AR (MRP1), 2 nM; in the data set on KB-HTI-4.0, 0.00619 ± 0.00126 µM. The “RR, relative resistance” value with KB-8-5 (MDR1+) [1] (Table 3) came out at 37; in the data set on S1-M1-3.2 (MXR) it was 1.9; with KB-V1 (MDR1++) [2] (Table 3) it was 1848; in the data set with HL60/AR (MRP1), 3.7. In the data set with KB-8-5 (MDR1+) [1] (KB-8-5 (KB-85) vs KB-3-1, in vitro), the “resistance of KB-8-5 cells” value is 37 fold. In addition, the “Activity in nude mice animal model (% T/C @ MTD on days 11-15) MX-1W” value in the data set on MX-1W tumor was 64%. Moreover, the “resistance detected in cells over-expressing MRP1 or MXR” value in the data set on tumor cell lines is “no resistance”. Besides, the “Average Relative Resistance (RR)” value in the data set with KB-PTX-15+099 (IC50 KB-PTX-15+099 / IC50 KB-3-1, less than 1 = increased sensitivity) is reported as “(0.27)”. In addition, the “increased sensitivity of KB-PTX-15+099 cells” value in the data set on KB-PTX-15+099 (vs KB-3-1) is 3.7 fold. In [3], the “Activity in nude mice animal model (% T/C @ MTD on days 11-15) LOX” value is given as 9%. The “(RR) relative resistance vs. parental cells” value with KB-HTI-4.0 is reported as “(9)”. The “resistance of KB-3-1-derived cell lines selected with Example 129” value in the data set on KB-HTI-4.0 (vs KB-3-1) amounted to 9 fold.

`O=C1c2c(O)ccc(O)c2C(=O)c2c(NCCNCCO)ccc(NCCNCCO)c21` [mitoxantrone]: the IC50 with KB-8-5 (MDR1+) [1] (MDR1, read-out: KB-8-5 (MDR1+) IC50, nM (N)) is 19.1 nM; with S1 it was 31 nM; in the data set with HL60 it was 5.9 nM; in the data set with S1-M1-3.2 (MXR) it was 16600 nM; in the data set with KB-3-1 (Homo sapiens, KB-3-1 parental, Table 3, read-out: KB-3-1 IC50, nM (N)), 10.3 ± 6.9 nM; in the data set with KB-3-1 (Homo sapiens, KB-3-1 parental, Table 8, read-out: KB-3-1 IC50), 10 ± 6.5 nM. Also, the IC50 in the data set on KB-V1 (MDR1++) [2] (read-out: KB-V1 (MDR1++) IC50, nM (N)) was more than 3000 nM; with HL60/AR (MRP1), 190 nM; with KB-HTI-4.0, 0.43 ± 0.159 µM. Also, the “RR, relative resistance” value was 1.9 in the data set with KB-8-5 (MDR1+) [1] (Table 3), 535 with S1-M1-3.2 (MXR), more than 291 with KB-V1 (MDR1++) [2] (Table 3) and 32.4 in the data set on HL60/AR (MRP1). The “(RR) relative resistance vs. parental cells” value in the data set with KB-HTI-4.0 (KB-HTI-4.0 vs KB-3-1) is reported as “(43)”.

Regarding `CCN(C(=O)[C@@H](NC(=O)[C@@H](NC)C(C)(C)c1ccccc1)C(C)C)[C@H](/C=C(\C)C(=O)O)C(C)C.O=C(O)C(F)(F)F` [Example 95, N,β,β-trimethyl-L-phenylananyl-N^1-[(1S,2E)-3-carboxy-1-isopropylbut-2-enyl]-N^1-ethyl-L-valinamide Trifluoroacetic Acid], in the data set with KB-8-5 (MDR1+) [1], the “Ratio KB85/KB” value came to 2.1. For the same compound, the IC50 was found to be 2.55 µM with KB-V1 (MDR1++) [4]; 38.6 nM with KB-3-1 (KB-3-1 cells (paclitaxel-sensitive parent), read-out: In vitro IC50 (nM) KB-3-1); 0.082 µM with KB-8-5 (MDR1+) [5]. In the data set on KB-V1 (MDR1++) [2], the “Ratio KBV1/KB” value stood at 66.0.

Source of the values: patent US20040121965A1, “Method of treating resistant tumors” (Wyeth Holdings Corporation, priority 2002, published 2004).
